Columns and labels:
[1] = system: costovertebral organ of hamsters; test: Costovertebral organ study repeated with female hamsters (antiandrogenic activity, topical); type: in vivo; details: for inhibition of the weight increase of the organ: right costovertebral organ, topical 5 mg/day
Description: (§1) Male golden hamsters weighing 100 to 110 g castrated 7 days earlier received a subcutaneous injection of 125 μg per day and per animal of testosterone propionate in 0.2 ml of a sesame oil solution containing 0.5% of benzyl alcohol. One group of animals received also a treatment by topical application of an ethanol solution of the test compound on the right costovertebral organ and the left costovertebral organ received only ethanol. The treatment lasted for 8 days and 24 hours after the last, the costovertebral organs and the prostate were removed and weighed.
The study was repeated with female hamsters to test the antiandrogenic activity of the compounds of Examples 7 and 13 at a dose of 5 mg/day and the results are reported in Table III.
The test was repeated on female hamsters to determine the antiandrogenic activity of the compounds of Examples 13 to 17 at 1 mg/day and the results are reported in Table IV.

[2] = system: costovertebral organ of hamsters; test: In vivo study with costovertebral organ of hamsters (male, castrated, testosterone propionate-treated, topical test product); set-up: species or system Male golden hamsters; details: for Control Gland in mg / Treated Gland in mg: Table II, 8 days; for Control Gland in mg: left costovertebral organ (ethanol only), testosterone propionate s.c. alone or + product B 1 mg/day; for Treated Gland in mg: testosterone propionate s.c. alone or + product B 1 mg/day topical
Description: (§2) B. In vivo study with costovertebral organ of hamsters
as §1

prostate = test: In vivo study with hamsters: prostate weight (male, castrated, testosterone propionate-treated, topical test product); set-up: species or system Male golden hamsters; details: for Prostate in mg: Table II, testosterone propionate s.c. alone or + product B 1 mg/day topical, 8 days
Description: as §2, §1

male mice = test: Acute toxicity in male mice; type: in vivo; details: 7th day
Description: Five male mice weighing 18 to 20 g received an intraperitoneal or oral administration of decreasing doses of product B in aqueous solution containing 0.25% of carboxymethyl cellulose and 0.2% of Tween at 1000, 600 or 400 mg/kg and the number of dead mice was determined on the 7th day. The DLo or the more elevated dose at which no mortality was observed was determined to be 400 mg/kg intraperitoneally and 1000 mg/kg orally for product B.

[3] = Table III, testosterone propionate alone or + product 5 mg/day
[4] = Table III, testosterone propionate alone or + product 5 mg/day topical
[5] = Table IV, testosterone propionate alone or + product 1 mg/day
[6] = Table IV, testosterone propionate alone or + product 1 mg/day topical

Structure (SMILES)	Control Gland in mg [1, 3]	Treated Gland in mg [1, 4]	inhibition of the weight increase of the organ [1] [%]	% inhibition of weight increase ([1]; Table IV, 1 mg/day topical) [%]	Control Gland in mg [1, 5]	Treated Gland in mg [1, 6]	Control Gland in mg [2]	Treated Gland in mg ([2]; right costovertebral organ)	antagonism of the effect of testosterone propionate on the untreated gland ([2]; left (untreated) gland, product applied locally to right costovertebral organ)	inhibition in the weight increase of the organ ([2]; right costovertebral organ, male hamsters, topical 1 mg/day) [%]	Prostate in mg (prostate)	systemic effect (prostate; inferred from untreated gland and prostate after local application)	antagonism of the effect of testosterone propionate on the prostate (prostate; product applied locally to right costovertebral organ)	DLo (more elevated dose at which no mortality was observed) (male mice; intraperitoneal) [mg/kg]	DLo (more elevated dose at which no mortality was observed) (male mice; oral) [mg/kg]
CCCC(=O)O[C@H]1CCC2C3CCC(=O)C(CC)=C3CC[C@@]21C (stereo partly shown) [Example 7, Butanoate of 3aβ-methyl-6-ethyl-7-oxo-1,2,3,3a,4,5,8,9,9a,9b-decahydro-1H-benz(e)-inden-3-yl]	9,5 ± 0,8 mg	4,5 ± 0,4 mg	90	–	–	–	–	–	–	–	–	–	–	–	–
CCC1=C2CC[C@@]3(C)C(CC[C@@H]3OC(C)=O)C2CCC1=O (stereo partly drawn) [Example 13, 3β-acetoxy-3aβ-methyl-6-ethyl-1,2,3,3a,4,5,8,9,9a,9b-decahydro-7H-benz(e)-inden-7-one]	10,8 ± 2,1 mg	3,9 ± 0,4 mg	95.6	61	9,9 ± 1,6 mg	6,0 ± 0,2 mg	–	–	–	–	–	–	–	–	–
CCC1=C2CC[C@@]3(C)C(CC[C@@H]3O)C2CCC1=O (stereo partly drawn) [Product B, 3aβ-methyl-6-ethyl-1,2,3,3a,4,5,8,9,9a,9b-decahydro-7-H-benz(e)-inden-3β-ol-7-one]	–	–	–	–	–	–	41,8 ± 5,2 mg	17,1 ± 2,2 mg	did not antagonize the effect of testosterone propionate on the untreated gland	61	80,1 ± 9,3 mg	does not have a systemic effect	did not antagonize the effect of testosterone propionate on the untreated gland or the prostate	400	1000
CCC(=O)O[C@H]1CC[C@H]2[C@@H]3CCC4=CC(=O)CC[C@]4(C)[C@H]3CC[C@]12C [Testosterone Propionate, testosterone propionate, reference compound]	15,8 ± 1,0 mg	14,9 ± 1,1 mg	–	–	11,0 ± 2,0 mg	10,2 ± 0,6 mg	35,8 ± 5,0 mg	33,91 ± 2,9 mg	–	–	79,5 ± 5,5 mg	–	–	–	–

— patent publication US4927975A, “Process for preparing certain decahydro-7H-3-ol-7-ones” (Roussel Uclaf, priority 1981, dated 1990)
